“And” between values parts separate entries of the source, which are not always exact repeats. Equal values may be shown once. Inconclusive results and toxic doses are left out.
Test system: P388 leukemia ip, CD2F1 mice, survival T/C
Test: NCI In Vivo Anticancer Drug Screen. Data for tumor model P388 Leukemia (intraperitoneal) in CD2F1 (CDF1) mice
Conditions: endpoint: median survival time, higher = longer survival
Outline: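 Mice carrying the transplanted tumor received test compound or vehicle. Survival was recorded in each group, and the value is the treated-group measurement divided by that of the vehicle-treated control group.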

[1] = dose: 12.5 mg/kg/injection, schedule: Q01DX009 (ip), vehicle: Klucel (hydroxypropylcellulose) (HPC)
[2] = dose: 25.0 mg/kg/injection, schedule: Q01DX009 (ip), vehicle: Klucel (hydroxypropylcellulose) (HPC)
[3] = dose: 60.0 mg/kg/injection, schedule: Q01DX005 (ip), vehicle: Klucel (hydroxypropylcellulose) (HPC)
[4] = dose: 120.0 mg/kg/injection, schedule: Q01DX005 (ip), vehicle: Klucel (hydroxypropylcellulose) (HPC)
[5] = dose: 50.0 mg/kg/injection, schedule: Q01DX009 (ip), vehicle: saline

**Q.** What does the source list for `[I][Hg][CH]1CCC2CCCC1O2` (stereo not drawn)?
**A.** T/C [1]: 105 % of control; T/C [2]: 102 % of control

**Q.** For `O=C1C2=C(Nc3ccccc3N2)OC1c1ccccc1Cl` (stereo not drawn), which T/C [3] is on record?
**A.** 97 % of control

**Q.** What about the T/C [4] of the same compound?
**A.** 97 % of control

**Q.** `Cc1ccc([P+](CCN2C(=O)c3ccccc3C2=O)(c2ccc(C)cc2)c2ccc(C)cc2)cc1` was tested. Which T/C (dose: 0.39 mg/kg/injection, schedule: Q01DX009 (ip), vehicle: water) did it give?
**A.** 111 % of control

**Q.** And the T/C (dose: 0.78 mg/kg/injection, schedule: Q01DX009 (ip), vehicle: water)?
**A.** 121 % of control

**Q.** And the T/C (dose: 1.56 mg/kg/injection, schedule: Q01DX009 (ip), vehicle: water)?
**A.** 115 % of control

**Q.** What about the T/C (dose: 3.13 mg/kg/injection, schedule: Q01DX009 (ip), vehicle: water) of the same compound?
**A.** 121 % of control

**Q.** How did the T/C [5] turn out when `c1c[nH]cn1` was run?
**A.** 97 % of control

**Q.** How did the T/C [3] turn out when `COc1ccc(C2OC3=C(Nc4cc(C)c(C)cc4N3)C2=O)cc1` (stereo not drawn) was run?
**A.** 89 % of control

**Q.** What about the T/C [4] of the same compound?
**A.** 89 % of control

**Q.** With `OC1c2ccccc2-c2ccccc2C1O` (stereo not drawn) as the compound, how does the T/C (dose: 100.0 mg/kg/injection, schedule: Q04DX002 (ip), vehicle: saline with Tween-80) read?
**A.** 101 % of control and 102 % of control

**Q.** What about the T/C (dose: 200.0 mg/kg/injection, schedule: Q04DX002 (ip), vehicle: saline with Tween-80) of the same compound?
**A.** 101 % of control and 97 % of control

**Q.** What about the T/C (dose: 400.0 mg/kg/injection, schedule: Q04DX002 (ip), vehicle: saline with Tween-80) of the same compound?
**A.** 101 % of control

**Q.** Which results are given for `C1CC[C@]2([C@]34CCCC[C@H]3O4)O[C@@H]2C1`?
**A.** T/C [3]: 99 % of control; T/C [4]: 100 % of control; T/C (dose: 240.0 mg/kg/injection, schedule: Q01DX005 (ip), vehicle: Klucel (hydroxypropylcellulose) (HPC)): 104 % of control

**Q.** With `NS(=O)(=O)c1ccc(Nc2c3ccccc3nc3cc(Cl)ccc23)cc1` as the compound, how does the T/C (dose: 6.25 mg/kg/injection, schedule: Q01DX009 (ip), vehicle: Klucel (hydroxypropylcellulose) (HPC)) read?
**A.** 98 % of control

**Q.** What about the T/C [1] of the same compound?
**A.** 98 % of control

**Q.** And the T/C [2]?
**A.** 90 % of control

**Q.** What about the T/C (dose: 100.0 mg/kg/injection, schedule: Q01DX009 (ip), vehicle: Klucel (hydroxypropylcellulose) (HPC)) of the same compound?
**A.** 86 % of control

**Q.** How did the T/C (dose: 50.0 mg/kg/injection, schedule: Q01DX005 (ip), vehicle: Klucel (hydroxypropylcellulose) (HPC)) turn out when `CCC(C)(C)NCCCCCNc1cc(OC)cc2cccnc12` was run?
**A.** 94 % of control

**Q.** And the T/C (dose: 50.0 mg/kg/injection, schedule: Q01DX005 (ip), vehicle: saline with Tween-80)?
**A.** 95 % of control

**Q.** And the T/C (dose: 100.0 mg/kg/injection, schedule: Q01DX005 (ip), vehicle: Klucel (hydroxypropylcellulose) (HPC))?
**A.** 101 % of control

**Q.** And the T/C (dose: 100.0 mg/kg/injection, schedule: Q01DX005 (ip), vehicle: saline with Tween-80)?
**A.** 95 % of control

**Q.** What about the T/C (dose: 200.0 mg/kg/injection, schedule: Q01DX005 (ip), vehicle: saline with Tween-80) of the same compound?
**A.** 91 % of control

**Q.** Which results are given for `CC[As](=O)(O)CC(C)C`?
**A.** T/C (dose: 25.0 mg/kg/injection, schedule: Q04DX002 (ip), vehicle: saline): 100 % of control; T/C (dose: 50.0 mg/kg/injection, schedule: Q04DX002 (ip), vehicle: saline): 100 % of control

**Q.** For `O=C(NC(=NC(=Nc1ccc(Cl)cc1)c1ccccc1)c1ccccc1)c1ccccc1`, which T/C (dose: 50.0 mg/kg/injection, schedule: Q01DX009 (ip), vehicle: saline with Tween-80) is on record?
**A.** 92 % of control

**Q.** What about the T/C (dose: 100.0 mg/kg/injection, schedule: Q01DX009 (ip), vehicle: saline with Tween-80) of the same compound?
**A.** 95 % of control

**Q.** What about the T/C (dose: 200.0 mg/kg/injection, schedule: Q01DX009 (ip), vehicle: saline with Tween-80) of the same compound?
**A.** 99 % of control

**Q.** What does the source list for `CCCCNc1nc(SC)nc2nc[nH]c12`?
**A.** T/C (dose: 50.0 mg/kg/injection, schedule: Q04DX003 (ip), vehicle: saline with Tween-80): 100 % of control; T/C (dose: 100.0 mg/kg/injection, schedule: Q04DX003 (ip), vehicle: saline with Tween-80): 98 % of control; T/C (dose: 200.0 mg/kg/injection, schedule: Q04DX003 (ip), vehicle: saline with Tween-80): 96 % of control; T/C (dose: 400.0 mg/kg/injection, schedule: Q04DX003 (ip), vehicle: saline with Tween-80): 95 % of control

**Q.** `O=C(O)c1c[nH]c2cc(OCCc3ccc(F)cc3)ccc2c1=O` was tested. Which T/C [5] did it give?
**A.** 107 % of control

**Q.** And the T/C (dose: 100.0 mg/kg/injection, schedule: Q01DX009 (ip), vehicle: saline)?
**A.** 101 % of control

**Q.** What about the T/C (dose: 200.0 mg/kg/injection, schedule: Q01DX009 (ip), vehicle: saline) of the same compound?
**A.** 101 % of control

Reference: PubChem BioAssay AID330 (DTP/NCI, 2004)
